pIC50: −log10 of the molar value. Like-named read-outs stand apart in the source and are kept apart here.
Tests used:
HT29 cells = test: Inhibitory effect of compounds on HT29 cell proliferation; assay type: cell-based, Human; settings: read-out: IC50, inhibitory activity on HT29 cell proliferation
Method: (1) Cell plating: First, tumor cells HT29 were cultured in corresponding medium, then digested with trypsin, centrifuged, resuspended, and counted, and the cells were adjusted to an appropriate concentration for plating.
(§1) Co-incubation of the compound of the present disclosure and tumor cells: after the cells adhered to the wall, the medium was removed, and the diluted bioactive molecule (the compound of the present disclosure) was added to the wells of the above plate, and incubated for 72 h.
(§2) In vitro cell viability detection: After the incubation, 50 μL of Cell Counting-Lite™ 2.0 reagent (Vazyme/Novazyme) was added to each well, shaken and mixed well in the dark, reacted for 10 minutes, and then the detection was carried out with a microplate reader (manufacturer: BMG, Model: PHERAStar-FS) for reading. The background RLU was obtained by using cell-free medium (with Cell Counting-Lite™), and the vehicle RLU was obtained by using cell-containing medium (with Cell Counting-Lite™). Cell inhibition rate=1−(sample RLU−background RLU)/(solvent RLU−background RLU)×100%. According to the four-parameter model fitting curve, the half maximal inhibitory concentration (IC50) of the compound was calculated, and the detection results were shown in Table 2.

NCI-N87 cells = test: Inhibitory effect of compounds on NCI-N87 cell proliferation; assay type: cell-based, Human
Method: (1) Cell plating: First, tumor cells NCI-N87 were cultured in corresponding medium, then digested with trypsin, centrifuged, resuspended, and counted, and the cells were adjusted to an appropriate concentration for plating.
as §1
as §2, with “Table 12.” for “Table 2.”

NCI-H358 cells = test: Inhibitory effect of compounds on NCI-H358 cell proliferation; assay type: cell-based, Human
Method: (1) Cell plating: First, tumor cells NCI-H358 were cultured in corresponding medium, then digested with trypsin, centrifuged, resuspended, and counted, and the cells were adjusted to an appropriate concentration for plating.
as §1
as §2, with “Table 10.” for “Table 2.”

HCC1806 cells = test: Inhibitory effect of compounds on HCC1806 cell proliferation; assay type: cell-based, Human
Method: (1) Cell plating: First, tumor cells HCC1806 were cultured in corresponding medium, then digested with trypsin, centrifuged, resuspended, and counted, and the cells were adjusted to an appropriate concentration for plating.
as §1
as §2, with “Table 6.” for “Table 2.”

MDA-MB-453 cells = test: Inhibitory effect of compounds on MDA-MB-453 cell proliferation; assay type: cell-based; settings: MDA-MB-453 human breast cancer cells, 72 h incubation, Cell Counting-Lite 2.0
Method: (1) Cell plating: First, tumor cells MDA-MB-453 were cultured in corresponding medium, then digested with trypsin, centrifuged, resuspended, and counted, and the cells were adjusted to an appropriate concentration for plating.
as §1
as §2, with “Table 22.” for “Table 2.”

[1] = NCI-N87 human gastric cancer cells, 72 h incubation, Cell Counting-Lite 2.0, read-out: IC50, inhibitory activity on NCI-N87 cell proliferation
[2] = NCI-H358 human non-small cell lung cancer cells, 72 h incubation, Cell Counting-Lite 2.0, read-out: IC50, inhibitory activity on NCI-H358 cell proliferation
[3] = HCC1806 human breast squamous carcinoma cells, 72 h incubation, Cell Counting-Lite 2.0, read-out: IC50, inhibitory activity on HCC1806 cell proliferation
[4] = Homo sapiens, NCI-N87, 72 h, read-out: IC50, inhibitory activity on NCI-N87 cell proliferation, NCI-N87 human gastric cancer cells, 72 h incubation, Cell Counting-Lite 2.0
[5] = Homo sapiens, HCC1806, 72 h, read-out: IC50, inhibitory activity on HCC1806 cell proliferation, HCC1806 human breast squamous carcinoma cells, 72 h incubation, Cell Counting-Lite 2.0
[6] = read-out: IC50, inhibitory activity on NCI-N87 cell proliferation, NCI-N87 human gastric cancer cells, 72 h incubation, Cell Counting-Lite 2.0
[7] = Homo sapiens, NCI-H358, 72 h, read-out: IC50, inhibitory activity on NCI-H358 cell proliferation, NCI-H358 human non-small cell lung cancer cells, 72 h incubation, Cell Counting-Lite 2.0
[8] = read-out: IC50, inhibitory activity on HCC1806 cell proliferation, HCC1806 human breast squamous carcinoma cells, 72 h incubation, Cell Counting-Lite 2.0

`CC[C@@]1(O)C(=O)OCc2c1cc1n(c2=O)Cc2c-1nc1cc(Cl)c(C)c3c1c2[C@H](NCC(C)(C)O)CC3` [Example 6 (2-17-B), N-((1R,9S)-5-chloro-9-ethyl-9-hydroxy-4-methyl-10,13-dioxo-2,3,9,10,13,15-hexahydro-1H, 12H-benzo[de]pyrano[3′,4′:6,7]indolizino[1,2-b]quinolin-1-yl)-2-hydroxy-2-methylpropylamine] gave a pIC50 (HT29 cells; Homo sapiens, HT-29, 72 h) of 8.80.
In the case of `CC[C@@]1(O)C(=O)OCc2c1cc1n(c2=O)Cc2c-1nc1cc(Cl)c(C)c3c1c2[C@H](NC[C@@H](C)O)CC3` [Example 24 (2-27-B), (2R)—N-((1R,9S)-5-chloro-9-ethyl-9-hydroxy-4-methyl-10,13-dioxo-2,3,9,10,13,15-hexahydro-1H,12H-benzo[de]pyrano[3′,4:6,7]indolizino[1,2-b]quinolin-1-yl)-2-hydroxypropylamine], the pIC50 (NCI-N87 cells; [1]) was 7.83, the pIC50 (NCI-H358 cells; [2]) was 7.16 and the pIC50 (HCC1806 cells; [3]) was 8.41.
`CC[C@@]1(O)C(=O)OCc2c1cc1n(c2=O)Cc2c-1nc1cc(F)c(Cl)c3c1c2[C@H](NC(=O)C1(O)CC1)CC3` [Example 18 (3-17-B)] showed a pIC50 (NCI-N87 cells; [1]) of 8.38, a pIC50 (MDA-MB-453 cells) of 8.21 and a pIC50 (NCI-H358 cells; [2]) of 7.43. For the same compound, the pIC50 (HCC1806 cells; [3]) was 8.65.
With `CC[C@@]1(O)C(=O)OCc2c1cc1n(c2=O)Cc2c-1nc1cc(F)c(C)cc1c2CCN(C(=O)CO)C(C)C` [Example 10 (4-12), (S)—N-(2-(4-ethyl-8-fluoro-4-hydroxy-9-methyl-3,14-dioxo-3,4,12,14-tetrahydro-1H-pyrano[3′,4′:6,7]indolizino[1,2-b]quinolin-11-yl)ethyl)-2-hydroxy-N-isopropylacetamide] the pIC50 (HT29 cells; HT-29, HT29 human colon cancer cells, 72 h incubation, Cell Counting-Lite 2.0) was 8.32.
Compound `CC[C@@]1(O)C(=O)OCc2c1cc1n(c2=O)Cc2c-1nc1cc(F)c(Cl)c3c1c2[C@@H](NC(=O)C1(O)CC1)CC3` [Example 18 (3-17-A)] has a pIC50 (NCI-N87 cells; [1]) of 8.52, a pIC50 (MDA-MB-453 cells) of 8.48 and a pIC50 (NCI-H358 cells; [2]) of 7.87. The pIC50 (HCC1806 cells; [3]) was 8.77.
`CC[C@@]1(O)C(=O)OCc2c1cc1n(c2=O)Cc2c-1nc1cc(F)c(Cl)c3c1c2[C@H](NC[C@@H](C)O)CC3` (single isomer, unassigned) [Example 25 (3-26-B)] was tested, and the pIC50 (NCI-N87 cells; [4]) was 7.60 and the pIC50 (HCC1806 cells; [5]) was 8.31.
Compound `CC[C@@]1(O)C(=O)OCc2c1cc1n(c2=O)Cc2c-1nc1cc(F)c(Cl)c3c1c2C(NC(=O)C(O)C1CC1)CC3` (single isomer, unassigned) [Example 16 (3-12-A)] has a pIC50 (NCI-N87 cells; [6]) of 9.36, a pIC50 (MDA-MB-453 cells) of 9.33 and a pIC50 (NCI-H358 cells; [7]) of 7.81. It also gave a pIC50 (HCC1806 cells; [8]) of 9.80.
Work on `CC[C@@]1(O)C(=O)OCc2c1cc1n(c2=O)Cc2c-1nc1cc(Cl)c(C)c3c1c2[C@H](NC(=O)[C@H](O)C1CC1)CC3` [Example 5 (2-12-D), (2R)—N-((1R,9S)-5-chloro-9-ethyl-9-hydroxy-4-methyl-10,13-dioxo-2,3,9,10,13,15-hexahydro-1H,12H-benzo[de]pyrano[3′,4′:6,7]indolizino[1,2-b]quinolin-1-yl)-2-cyclopropyl-2-hydroxyacetamide] yielded a pIC50 (HT29 cells; Homo sapiens, HT-29, 72 h) of 8.48.
`CC[C@@]1(O)C(=O)OCc2c1cc1n(c2=O)Cc2c-1nc1cc(F)c(Cl)c3c1c2[C@@H](NC[C@@H](C)O)CC3` (single isomer, unassigned) [Example 25 (3-26-A)] gave a pIC50 (NCI-N87 cells; [4]) of 8.91, a pIC50 (MDA-MB-453 cells; Homo sapiens, MDA-MB-453, 72 h) of 8.40 and a pIC50 (NCI-H358 cells; [7]) of 7.50. The pIC50 (HCC1806 cells; [5]) was 8.90.
Work on `CC[C@@]1(O)C(=O)OCc2c1cc1n(c2=O)Cc2c-1nc1cc(Cl)c(C)c3c1c2[C@H](NC(=O)CO)CC3` [Example 3 (2-2-B), N-((1R,9S)-5-chloro-9-ethyl-9-hydroxy-4-methyl-10,13-dioxo-2,3,9,10,13,15-hexahydro-1H,12H-benzo[de]pyrano[3′,4′:6,7]indolizino[1,2-b]quinolin-1-yl)-2-hydroxyacetamide] yielded a pIC50 (HT29 cells; Homo sapiens, HT-29, 72 h) of 8.12.
`CC[C@@]1(O)C(=O)OCc2c1cc1n(c2=O)Cc2c-1nc1cc(F)c(Cl)c3c1c2C(NC(=O)C(O)C1CC1)CC3` (single isomer, unassigned) [Example 16 (3-12-D)] gave a pIC50 (NCI-N87 cells; [6]) of 8.52, a pIC50 (MDA-MB-453 cells) of 8.40 and a pIC50 (NCI-H358 cells; read-out: IC50, inhibitory activity on NCI-H358 cell proliferation, NCI-H358 human non-small cell lung cancer cells, 72 h incubation, Cell Counting-Lite 2.0) of 7.68. It also gave a pIC50 (HCC1806 cells; [8]) of 8.82.
With `CC[C@@]1(O)C(=O)OCc2c1cc1n(c2=O)Cc2c-1nc1cc(F)c(Cl)c3c1c2[C@H](NC[C@H](C)O)CC3` (single isomer, unassigned) [Example 17 (3-7-B)] the pIC50 (NCI-N87 cells; [4]) was 8.34, the pIC50 (MDA-MB-453 cells; Homo sapiens, MDA-MB-453, 72 h) was 8.31 and the pIC50 (NCI-H358 cells; [7]) was 7.65. It also gave a pIC50 (HCC1806 cells; [5]) of 8.71.
For `CC[C@@]1(O)C(=O)OCc2c1cc1n(c2=O)Cc2c-1nc1cc(F)c(Cl)c3c1c2[C@H](N)CC3` (single isomer, unassigned) [Example 8 (3-1-B)], the pIC50 (HT29 cells; Homo sapiens, HT-29, 72 h) was 9.15 and the pIC50 (NCI-N87 cells; [4]) was 8.87.
`CC[C@@]1(O)C(=O)OCc2c1cc1n(c2=O)Cc2c-1nc1cc(F)c(C)c3c1c2[C@@](C)(NC(=O)C1(O)CC1)CC3` (single isomer, unassigned) [Example 14 (5-16-A)] was tested, and the pIC50 (HT29 cells; Homo sapiens, HT-29, 72 h) was 8.41.
Compound `CC[C@@]1(O)C(=O)OCc2c1cc1n(c2=O)Cc2c-1nc1cc(F)c(Cl)c3c1c2[C@@H](NC[C@H](C)O)CC3` (single isomer, unassigned) [Example 17 (3-7-A)] has a pIC50 (NCI-N87 cells; [4]) of 8.27, a pIC50 (MDA-MB-453 cells; Homo sapiens, MDA-MB-453, 72 h) of 8.21 and a pIC50 (NCI-H358 cells; [7]) of 7.31.
With `CC[C@@]1(O)C(=O)OCc2c1cc1n(c2=O)Cc2c-1nc1cc(F)c(Cl)c3c1c2[C@@H](N)CC3` (single isomer, unassigned) [Example 8 (3-1-A)] the pIC50 (HT29 cells; Homo sapiens, HT-29, 72 h) was 9.80 and the pIC50 (NCI-N87 cells; [4]) was 9.43.
`CC[C@@]1(O)C(=O)OCc2c1cc1n(c2=O)Cc2c-1nc1cc(Cl)c(C)c3c1c2[C@@H](NCC(C)(C)O)CC3` [Example 6 (2-17-A), N-((1S,9S)-5-chloro-9-ethyl-9-hydroxy-4-methyl-10,13-dioxo-2,3,9,10,13,15-hexahydro-1H,12H-benzo[de]pyrano[3′,4′:6,7]indolizino[1,2-b]quinolin-1-yl)-2-hydroxy-2-methylpropylamine] was tested, and the pIC50 (HT29 cells; Homo sapiens, HT-29, 72 h) was 8.91.

From patent US20250346606A1, “CAMPTOTHECIN COMPOUND, PREPARATION METHOD THEREFOR, AND APPLICATION THEREOF” (SICHUAN KELUN-BIOTECH BIOPHARMACEUTICAL CO., LTD., priority 2021, published 2025)
